Results: patent US10947196B2, “Beta adrenergic agonist and methods of using the same” (CURASEN THERAPEUTICS, INC., priority 2019, dated 2021)
Where two headings read alike, the source gives them in different places.

Columns and labels:
β1-adrenergic receptor = β1-adrenergic receptor (Homo sapiens (Human), UniProt P08588); test: cAMP Gs dynamic HTRF assay, β1 expressing CHO cells; format: cell-based
Method: (§1) cAMP homogeneous time-resolved fluorescence (HTRF). Compound efficacy was determined using the cAMP Gs dynamic HTRF assay (Cisbio, catalog #62AM4PEC) largely following the manufacturer's instructions, also detailed below.
(§2) Compound preparation. […] Standard serial dilution curves were 10-point, 5-fold dilutions starting from a highest concentration of 10 μM. […] Assay plates were centrifuged at 500×g for 10 seconds. Compounds and IBMX were prepared at 2× final dose to compensate for addition of cells.
(§3) Cell preparation. 1× stimulation buffer, washing PBS (Dulbecco's phosphate-buffered saline, −Mg −Ca; Caisson Labs, catalog #PBL01), assay PBS (Dulbecco's phosphate-buffered saline, +Mg, +Ca; Caisson Labs, catalog #PBL02) and Versene (0.02% EDTA disodium salt solution in PBS without calcium or magnesium; Caisson Labs, catalog #EDL01) were pre-warmed to 37° C. Cells expressing beta-adrenergic receptor were washed in washing PBS to remove growth medium and then released from the surface by incubating with Versene for 5-10 minutes at 37° C. Cells were harvested using assay PBS, counted manually by hemocytometer or by an automated cell counter, pelleted by centrifugation (200×g, 5 minutes) and resuspended in 37° C. 1× stimulation buffer to a final density of 1.5×10^6 cells/mL. 5 μL of the suspended cell solution (7500 cell total) were added to all wells of the 384 well assay plate, the assay plate was covered with an Axygen® plate seal (Corning PCR-SP) and incubated in a humidified 37° C. environment supplemented with 5% CO2 for 30 minutes.
(§4) HTRF reagent addition, reading and data analysis. After 30 minutes of cell stimulation with test compound, the assay plates were centrifuged at 500×g for 10 seconds, and incubation was stopped with the addition of 5 μL cAMP-D2 acceptor, diluted 1:21 in detection and lysis buffer 2 (Cisbio 62CL2FDF) was added to all cells. Subsequently, 5 μL Anti-cAMP-Eu Donor, diluted 1:21 in detection and lysis buffer 2, was added to cells. Plates were sealed and reactions gently ‘vortexed’ at 900 rpm on a Heidolph Titramax 1000 for at least 30 minutes at room temperature. Plates were centrifuged again at 500×g for 10 seconds, and HTRF was measured using a Tecan Spark plate reader at 50 flashes per well. […] Potency estimates (EC50) were derived from the four-parameter nonlinear regression of the concentration-effect curve and an estimate of relative efficacy was determined by comparing the magnitude of the test compound HTRF signal window (min−max dose) with the signal window of the full agonist control, isoproterenol.

β2 adrenergic receptor = β2 adrenergic receptor (Homo sapiens (Human), UniProt P07550); test: cAMP Gs dynamic HTRF assay, β2 expressing CHO cells; format: cell-based
β2 adrenergic receptor, sequence (P07550 whole entry, species assumed): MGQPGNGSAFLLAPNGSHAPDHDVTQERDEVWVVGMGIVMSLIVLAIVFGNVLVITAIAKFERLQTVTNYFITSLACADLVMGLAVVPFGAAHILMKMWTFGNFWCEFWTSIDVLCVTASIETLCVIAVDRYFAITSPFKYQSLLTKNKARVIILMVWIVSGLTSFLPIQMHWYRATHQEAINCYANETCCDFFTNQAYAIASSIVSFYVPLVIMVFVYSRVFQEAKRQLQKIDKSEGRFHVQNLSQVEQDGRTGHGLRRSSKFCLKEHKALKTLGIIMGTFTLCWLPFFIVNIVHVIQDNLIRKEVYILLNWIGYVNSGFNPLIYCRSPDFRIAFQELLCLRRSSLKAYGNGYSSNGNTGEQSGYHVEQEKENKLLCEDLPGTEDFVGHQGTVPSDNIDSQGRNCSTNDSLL
Method: as §1, §2, §3, §4

[1] = B1-AR, CHO-K cells, read-out: Average EC50 [Receptor subtype: B1-AR, Cell type: CHO-K]
[2] = B2-AR, CHO-K1 (HitHunter), read-out: Average pEC50 [Receptor subtype: B2-AR, Cell type: CHO-K1 (HitHunter)] (converted)
[3] = B2-AR, CHO-K cells, read-out: Average EC50 [Receptor subtype: B2-AR, Cell type: CHO-K]
[4] = B1-AR, CHO-K1 (HitHunter), read-out: Average pEC50 [Receptor subtype: B1-AR, Cell type: CHO-K1 (HitHunter)] (converted)

β1-adrenergic receptor, sequence (P08588 whole entry, species assumed): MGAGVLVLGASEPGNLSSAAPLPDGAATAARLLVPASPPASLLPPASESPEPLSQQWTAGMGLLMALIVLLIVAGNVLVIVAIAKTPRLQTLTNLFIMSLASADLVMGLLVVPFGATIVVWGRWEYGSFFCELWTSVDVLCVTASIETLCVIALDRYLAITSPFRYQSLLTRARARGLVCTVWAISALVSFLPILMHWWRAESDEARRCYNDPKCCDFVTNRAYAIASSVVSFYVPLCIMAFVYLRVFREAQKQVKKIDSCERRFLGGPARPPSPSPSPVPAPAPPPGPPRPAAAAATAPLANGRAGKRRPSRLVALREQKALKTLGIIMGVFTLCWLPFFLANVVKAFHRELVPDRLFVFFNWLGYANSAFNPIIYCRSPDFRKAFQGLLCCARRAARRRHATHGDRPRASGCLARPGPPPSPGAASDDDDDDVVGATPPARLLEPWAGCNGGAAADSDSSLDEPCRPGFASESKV

Row | SMILES | EC50 (β1-adrenergic receptor; [1]) [µM] | EC50 (β2 adrenergic receptor; [2]) [µM] | EC50 (β2 adrenergic receptor; [3]) [µM] | EC50 (β1-adrenergic receptor; [4]) [µM] | also measured
1 | CC(C)(C)NC[C@H](O)c1ncccc1C(F)(F)F [Compound 03-1, (S)-2-(tert-butylamino)-1-(3-(trifluoromethyl)pyridin-2-yl)ethan-1-ol] |  |  |  |  | EC50 (β1-adrenergic receptor; cAMP HTRF, read-out: β1 EC50): > 1 µM; EC50 (β2 adrenergic receptor; cAMP HTRF, read-out: β2 EC50): > 1 µM
2 | CC(C)(C)NC[C@H](O)c1cc(C(F)(F)F)ccn1 [Compound 03-2] |  |  |  |  | EC50 (β1-adrenergic receptor; cAMP HTRF, read-out: β1 EC50): > 1 µM; EC50 (β2 adrenergic receptor; cAMP HTRF, read-out: β2 EC50): 0.1 to 1 µM
3 | Cc1cccnc1[C@@H](O)CNC(C)(C)C [Compound 03-4] |  |  |  |  | EC50 (β1-adrenergic receptor; cAMP HTRF, read-out: β1 EC50): > 1 µM; EC50 (β2 adrenergic receptor; cAMP HTRF, read-out: β2 EC50): > 1 µM
4 | CN(C)C(=O)c1cccc([C@@H](O)CNC(C)(C)C)n1 [Compound 03-7] | > 1 | 0.1 to 1 | 0.1 to 1 |  | Average pEC50 [Receptor subtype: B1-AR; Cell type: CHO-K1 (HitHunter)] (β1-adrenergic receptor; B1-AR, CHO-K1 (HitHunter)): D (D < 6)
5 | CC1(NC[C@@H](O)c2cccc(C(F)(F)F)n2)CCC1 [Compound 03-12] | > 1 | 0.1 to 1 | 0.1 to 1 | > 1 | 
6 | CC1(NC[C@@H](O)c2cccc(C(F)(F)F)n2)CC1 [Compound 03-13] | > 1 | > 1 | > 1 | > 1 | 
7 | COc1ccc(C[C@@H](C)NC[C@@H](O)c2cccc(C(F)(F)F)n2)cc1 [Compound 03-16] | 0.1 to 1 | 0.01 to 0.1 | 0.01 to 0.1 | 0.1 to 1 | 
8 | CC(C)(C)NC[C@H](O)c1cccc(C(N)=O)n1 [Compound 03-17] | > 1 | > 1 | > 1 |  | Average pEC50 [Receptor subtype: B1-AR; Cell type: CHO-K1 (HitHunter)] (β1-adrenergic receptor; B1-AR, CHO-K1 (HitHunter)): D (D < 6)
9 | CC(C)(C)NC[C@H](O)c1cccc(-c2nnn[nH]2)n1 [Compound 03-18] | > 1 |  |  |  | Average pEC50 [Receptor subtype: B1-AR; Cell type: CHO-K1 (HitHunter)] (β1-adrenergic receptor; B1-AR, CHO-K1 (HitHunter)): D (D < 6)
10 | Cc1cc([C@H](O)CNC(C)(C)C)nc(C(F)(F)F)c1 [Compound 03-20] | > 1 | 0.1 to 1 | 0.1 to 1 | > 1 | 
11 | O[C@H](CNC1Cc2ccccc2C1)c1cccc(C(F)(F)F)n1 [Compound 03-22] | > 1 | > 1 | > 1 | > 1 | 
12 | CC1(NC[C@H](O)c2cccc(C(F)(F)F)n2)CCOCC1 [Compound 03-23] | 0.1 to 1 | 0.1 to 1 | 0.1 to 1 | 0.1 to 1 | 
13 | O[C@@H](CNC1CCOCC1)c1cccc(C(F)(F)F)n1 [Compound 03-25] | > 1 | > 1 | > 1 |  | Average pEC50 [Receptor subtype: B1-AR; Cell type: CHO-K1 (HitHunter)] (β1-adrenergic receptor; B1-AR, CHO-K1 (HitHunter)): D (D < 6)
14 | CC(C)(C)NC[C@H](O)c1cccc(-c2ccccc2)n1 [Compound 03-28] | 0.01 to 0.1 | < 0.01 | < 0.01 | 0.01 to 0.1 | 
15 | CC(C)(C)NC[C@H](O)c1ccc(C#N)c(C(F)(F)F)n1 [Compound 03-30] | 0.1 to 1 | 0.01 to 0.1 | 0.01 to 0.1 | 0.1 to 1 | 
16 | CC(C)(C)NC[C@@H](O)c1ccc(C#N)c(C(F)(F)F)n1 [Compound 03-31] |  | > 1 | > 1 |  | 
17 | CC(C)(C)NC[C@H](O)c1cccc(Br)n1 [Compound 03-32] | < 0.01 | 0.01 to 0.1 | 0.01 to 0.1 | < 0.01 | 
18 | O[C@H](CNC1CCC1)c1cccc(C(F)(F)F)n1 [Compound 03-34] | > 1 | > 1 | > 1 |  | Average pEC50 [Receptor subtype: B1-AR; Cell type: CHO-K1 (HitHunter)] (β1-adrenergic receptor; B1-AR, CHO-K1 (HitHunter)): D (D < 6)
19 | CC(C)NC[C@@H](O)c1cccc(C(F)(F)F)n1 [Compound 03-36] | > 1 | > 1 | > 1 | > 1 | 
20 | CC(C)(C)NC[C@@H](O)c1cccc(C(F)(F)F)n1 [Compound 03-43] | > 1 | 0.1 to 1 | > 1 | > 1 | 
21 | Cc1cccc([C@H](O)CNC(C)(C)C)n1 [Compound 03-47] | > 1 | > 1 | > 1 | > 1 | 
22 | CN(C)c1ncccc1[C@@H](O)CNC(C)(C)C [Compound 03-56] |  | > 1 | > 1 |  | 
23 | CC(C)(C)NC[C@H](O)c1cccnc1-c1cccc(F)c1 [Compound 03-61] |  | > 1 | > 1 |  | 
24 | CC(C)(C)NC[C@H](O)c1cccnc1C1=CCCC1 [Compound 03-62] |  | > 1 |  |  | 
25 | CCNc1ncccc1[C@@H](O)CNC(C)(C)C [Compound 03-73] |  | > 1 |  |  | 
26 | Cc1cnc(C2CCCC2)c([C@@H](O)CNC(C)(C)C)c1 [Compound 03-77] |  | > 1 |  |  | 
27 | CC(C)(C)NC[C@H](O)c1cc(C(F)(F)F)cnc1C1CCCC1 [Compound 03-78] |  |  |  | < 0.01 | 
28 | CC(C)(C)NC[C@H](O)c1cccnc1C(C)(C)C [Compound 03-79] |  | > 1 |  |  | 

Row | SMILES | EC50 (β1-adrenergic receptor; [1]) [µM] | EC50 (β2 adrenergic receptor; [2]) [µM] | EC50 (β2 adrenergic receptor; [3]) [µM] | EC50 (β1-adrenergic receptor; [4]) [µM] | also measured
29 | CC(C)(C)NC[C@H](O)c1cccnc1CC(F)(F)F [Compound 03-84] |  | > 1 |  |  | 
30 | Cc1cc([C@@H](O)CNC(C)(C)C)ccn1 [Compound 03-108] |  | > 1 |  |  | 
31 | CC(C)(C)NCC(O)c1cccnc1C(=O)NC(C)(C)C (stereo not shown) [Compound 03-112] |  | > 1 | > 1 |  | 
32 | CC(C)(C)NCC(O)c1cccnc1C(=O)O (stereo not shown) [Compound 03-113] |  | > 1 | > 1 |  | 
33 | Cc1ncccc1[C@H](O)CNC(C)(C)C [Compound 03-116] |  | > 1 | > 1 |  | 
34 | CC(C)(C)NC[C@H](O)c1cccnc1C(F)(F)F [Compound 03-118] |  | 0.1 to 1 | 0.1 to 1 |  | 
35 | CC(C)(C)NC[C@H](O)c1cccc(-c2ccc(Cl)cc2)n1 [Compound 03-119] | 0.1 to 1 |  |  |  | Average pEC50 [Receptor subtype: B1-AR; Cell type: CHO-K1 (HitHunter)] (β1-adrenergic receptor; B1-AR, CHO-K1 (HitHunter)): C (C = <7-6)
36 | CC(C)(C)NC[C@@H](O)c1cccc(-c2cccc(F)c2)n1 [Compound 03-132] | > 1 |  |  |  | Average pEC50 [Receptor subtype: B1-AR; Cell type: CHO-K1 (HitHunter)] (β1-adrenergic receptor; B1-AR, CHO-K1 (HitHunter)): D (D < 6)
37 | CC(C)(C)NC[C@@H](O)c1cccc(N2CC3CCCC3C2)n1 (stereo partly shown) [Compound 03-136] |  | 0.01 to 0.1 | 0.01 to 0.1 |  | 
38 | CC(C)(C)NC[C@@H](O)c1cccc(N2CCCCC2)n1 [Compound 03-138] | > 1 |  |  | > 1 | 
39 | CN1CCN(c2cccc([C@@H](O)CNC(C)(C)C)n2)CC1 [Compound 03-139] | > 1 |  |  |  | Average pEC50 [Receptor subtype: B1-AR; Cell type: CHO-K1 (HitHunter)] (β1-adrenergic receptor; B1-AR, CHO-K1 (HitHunter)): D (D < 6)
40 | CC(C)(C)NC[C@@H](O)c1cccc(-c2ccc(F)cc2)n1 [Compound 03-146] | 0.1 to 1 |  |  | 0.1 to 1 | 
41 | Cc1ccccc1-c1cccc([C@H](O)CNC(C)(C)C)n1 [Compound 03-150] | > 1 |  |  | > 1 | 
42 | CCN(CC)c1cccc([C@@H](O)CNC(C)(C)C)n1 [Compound 03-159] | 0.01 to 0.1 |  |  | 0.01 to 0.1 | 
43 | CC(C)(C)NC[C@H](O)c1nc(C(F)(F)F)cc2ccccc12 [Compound 03-171] |  |  | > 1 |  | 
44 | CCOc1cccc([C@H](O)CNC(C)(C)C)n1 [Compound 03-178] |  | 0.1 to 1 | 0.1 to 1 |  | 
45 | CC(C)Oc1cccc([C@H](O)CNC(C)(C)C)n1 [Compound 03-180] |  | 0.1 to 1 | 0.1 to 1 |  | 
46 | CC(C)(C)NC[C@@H](O)c1nccc2ccccc12 [Compound 03-187] |  |  | > 1 |  | 
47 | CC(=O)Nc1cccc([C@@H](O)CNC(C)(C)C)n1 [Compound 03-194] |  | > 1 |  |  | 
48 | OC(CNC1(C(F)(F)F)CC1)c1cccc(C(F)(F)F)n1 (stereo not shown) [Compound 03-218] |  | > 1 |  |  | 
49 | CC(C)(C)NC[C@@H](O)c1ccc(C#N)cn1 [Compound 03-222] |  | > 1 |  |  | 
50 | Cn1cc(-c2cccc([C@H](O)CNC(C)(C)C)n2)cn1 [Compound 03-224] |  | 0.1 to 1 |  |  | 
51 | CC(C)(C)NC[C@H](O)c1ccnc(C(F)(F)F)c1 [Compound 03-227] |  | > 1 |  |  | 
52 | CC(C)(C)NC[C@@H](O)c1cccc(NC2CCCC2)n1 [Compound 03-236] |  | 0.1 to 1 |  |  | 
53 | CC(C)(C)NC[C@H](O)c1cccc(C(=O)O)n1 [Compound 03-240] |  | > 1 |  |  | 
54 | CC(C)(C)NC[C@H](O)c1ccncc1C(F)(F)F [Compound 03-242] |  | > 1 |  |  | 
55 | CC(C)(C)N(O)C[C@H](O)c1cccc(C(N)=O)n1 [Compound 03-245] |  | > 1 |  |  | 
